Results reported in ChEMBL document CHEMBL1133772, “In vitro and in vivo evaluation of dihydropyrimidinone C-5 amides as potent and selective alpha(1A) receptor antagonists for the treatment of benign prostatic hyperplasia” (J Med Chem, 2000).

Legend:
[1] = Bioavailability in rat; format: ADME, organism-based; settings: in vivo
[2] = t1/2 in rat; format: ADME, organism-based; settings: in vivo
Rattus norvegicus [3] = species on record: Rattus norvegicus; assay: Evaluated for the inhibition of A61603-induced prostate contraction in rat; format: functional, Prostate gland
Rattus norvegicus [4] = species on record: Rattus norvegicus; assay: Duration of action with repeated challenges of A61603 agonist in rat; format: functional
Canis familiaris [5] = species on record: Canis familiaris; assay: Compound was evaluated for the inhibition of phenylephrine-induced contraction in dog.; format: functional, Canis lupus familiaris
Canis familiaris [6] = species on record: Canis familiaris; assay: Dose effecting a 20 mmHg change in diastolic blood pressure in dog.; format: functional, Canis lupus familiaris, Artery
[7] = target: T1, Alpha-1B adrenergic receptor (Homo sapiens, UniProt P35368); assay: Evaluated for the ability to displace [125I]- HEAT from human cloned Alpha-1B adrenergic receptor stably expressed in LM cells.; format: cell-based
T1 sequence (P35368 whole entry): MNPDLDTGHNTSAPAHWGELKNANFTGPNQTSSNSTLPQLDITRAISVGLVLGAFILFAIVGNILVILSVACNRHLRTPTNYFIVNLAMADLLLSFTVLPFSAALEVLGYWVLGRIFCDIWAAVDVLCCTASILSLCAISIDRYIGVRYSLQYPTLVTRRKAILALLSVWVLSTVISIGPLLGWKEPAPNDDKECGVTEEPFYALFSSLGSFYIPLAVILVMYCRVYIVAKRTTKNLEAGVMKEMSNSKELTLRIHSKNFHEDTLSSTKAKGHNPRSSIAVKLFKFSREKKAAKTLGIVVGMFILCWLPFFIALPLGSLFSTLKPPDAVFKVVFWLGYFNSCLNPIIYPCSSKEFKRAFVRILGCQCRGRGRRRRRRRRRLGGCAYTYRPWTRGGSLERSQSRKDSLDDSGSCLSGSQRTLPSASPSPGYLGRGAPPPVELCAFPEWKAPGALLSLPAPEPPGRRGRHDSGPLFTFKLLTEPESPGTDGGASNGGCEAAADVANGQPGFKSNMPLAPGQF

[8] = Bioavailability in dog (dose 0.5 mg/kg i.v. and 1 mg/kg p.o.); format: ADME, organism-based, Canis lupus familiaris; settings: in vivo, po
[9] = Plasma half-life from intravenous dose in dog.; format: ADME, organism-based, Canis lupus familiaris
[10] = target: T2, Alpha-1D adrenergic receptor (Homo sapiens, UniProt P25100); assay: Evaluated for the ability to displace [125I]- HEAT from human cloned Alpha-1D adrenergic receptor stably expressed in HEK cells.; format: cell-based, HEK293
T2 sequence (P25100 whole entry): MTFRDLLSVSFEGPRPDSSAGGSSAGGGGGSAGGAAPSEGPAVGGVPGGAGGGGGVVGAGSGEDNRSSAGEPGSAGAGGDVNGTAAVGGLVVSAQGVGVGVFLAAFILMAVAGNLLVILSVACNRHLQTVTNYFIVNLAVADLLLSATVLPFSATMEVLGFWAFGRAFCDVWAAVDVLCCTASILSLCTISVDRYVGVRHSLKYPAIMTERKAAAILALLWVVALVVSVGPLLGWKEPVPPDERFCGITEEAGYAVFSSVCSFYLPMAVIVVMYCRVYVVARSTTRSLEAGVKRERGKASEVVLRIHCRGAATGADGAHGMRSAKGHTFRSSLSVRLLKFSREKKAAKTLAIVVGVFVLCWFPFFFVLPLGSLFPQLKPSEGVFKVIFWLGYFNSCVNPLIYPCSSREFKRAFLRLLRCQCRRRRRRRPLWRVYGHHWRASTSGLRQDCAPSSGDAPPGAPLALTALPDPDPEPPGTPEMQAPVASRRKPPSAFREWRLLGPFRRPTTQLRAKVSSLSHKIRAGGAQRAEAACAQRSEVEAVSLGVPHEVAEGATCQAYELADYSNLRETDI

[11] = target: T3, Alpha-1A adrenergic receptor (Homo sapiens, UniProt P35348); assay: Evaluated for the ability to displace [125I]- HEAT from human cloned Alpha-1A adrenergic receptor stably expressed in CHO cells.; format: cell-based
T3 sequence (P35348 whole entry): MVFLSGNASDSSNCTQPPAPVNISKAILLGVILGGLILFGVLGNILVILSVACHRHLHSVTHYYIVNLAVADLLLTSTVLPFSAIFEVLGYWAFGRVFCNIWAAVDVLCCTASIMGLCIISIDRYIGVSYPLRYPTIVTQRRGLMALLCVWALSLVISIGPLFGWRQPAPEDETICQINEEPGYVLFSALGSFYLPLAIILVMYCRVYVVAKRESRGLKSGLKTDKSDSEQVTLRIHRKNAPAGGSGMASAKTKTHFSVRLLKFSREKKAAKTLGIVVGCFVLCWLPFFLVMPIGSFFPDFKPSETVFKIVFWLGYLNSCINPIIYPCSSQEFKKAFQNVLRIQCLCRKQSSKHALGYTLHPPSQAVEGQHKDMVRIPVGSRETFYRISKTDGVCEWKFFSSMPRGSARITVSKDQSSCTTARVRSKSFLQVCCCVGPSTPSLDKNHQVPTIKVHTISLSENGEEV

[12] = The compound was evaluated for the bioavailability when dosed 0.5 mg/kg intravenously and 1 mg/kg perorally in dog.; format: ADME, organism-based, Canis lupus familiaris; settings: in vivo, po
[13] = The compound was evaluated for plasma half-life from intravenous dose in dog.; format: ADME, organism-based, Canis lupus familiaris
[14] = target: T3, Alpha-1A adrenergic receptor; assay: Ability to displace [125I]- HEAT from human cloned Alpha-1A adrenergic receptor stably expressed in CHO cells.; format: cell-based
[15] = target: T2, Alpha-1D adrenergic receptor; assay: Ability to displace [125I]- HEAT from human cloned Alpha-1D adrenergic receptor stably expressed in HEK cells.; format: cell-based, HEK293
[16] = target: T1, Alpha-1B adrenergic receptor; assay: Ability to displace [125I]- HEAT from human cloned Alpha-1B adrenergic receptor stably expressed in LM cells.; format: cell-based
Canis familiaris [17] = species on record: Canis familiaris; assay: The compound was evaluated for the inhibition of phenylephrine-induced contraction in dog.; format: functional, Canis lupus familiaris
Rattus norvegicus [18] = species on record: Rattus norvegicus; assay: Evaluated for the inhibition of A61603-induced contraction; n=4 and data for each concentration was averaged (SEM<10%) in rat.; format: functional
Canis familiaris [19] = species on record: Canis familiaris; assay: Evaluated for the inhibition of phenylephrine-induced contraction (SEM<10%) in dog.; format: functional, Canis lupus familiaris
Canis familiaris [20] = species on record: Canis familiaris; assay: Dose effecting a 20 mmHg change in diastolic blood pressure (SEM<10%) in dog.; format: functional, Canis lupus familiaris, Artery
Rattus norvegicus [21] = species on record: Rattus norvegicus; assay: Duration of action with repeated challenges of A61603 agonist, n=4, data from each time point was averaged (SEM<10%) in rat.; format: functional
Rattus norvegicus [22] = species on record: Rattus norvegicus; assay: Inhibition of A61603-induced contraction; n=4 and data for each concentration was averaged (SEM<10%) in rat.; format: functional

| SMILES | bioavailability [1] [%] | half-life [2] [h] | AD50 (Rattus norvegicus [3]) [µg/kg] | Duration (Rattus norvegicus [4]) [h] | AD50 (Canis familiaris [5]) [µg/kg] | DBP-20 (Canis familiaris [6]) [µg/kg] | Ki [7] [nM] | Ki [10] [nM] | Ki [11] [nM] | Ki [14] [nM] | Ki [15] [nM] | Ki [16] [nM] | also measured |
| --- | --- | --- | --- | --- | --- | --- | --- | --- | --- | --- | --- | --- | --- |
| CC1=C(C(=O)NCCCN2CCC(c3ccc(F)cc3C#N)CC2)[C@@H](c2ccc(F)c(F)c2)NC(=O)N1C | 15 | 2.2 | 7 | 2.5 | 10 | >300 | 130 | 340 | 0.12 | – | – | – | bioavailability [8]: 27%; half-life [9]: 2.13 h |
| COCC1=C(C(=O)NCCCN2CCC(c3ccc(F)cc3)CC2)[C@@H](c2ccc(F)c(F)c2)NC(=O)N1 | 26 | 6.47 | 4.6 | 1 | 25 | >300 | 41 | 260 | – | 0.24 | – | – | bioavailability [12]: 40%; half-life [13]: 7.77 h |
| COCC1=C(C(=O)NCCCN2CCC(c3ccccn3)CC2)[C@@H](c2ccc(F)c(F)c2)NC(=O)N1 | 0 | 7 | 12 | 0.25 | – | – | 235 | 495 | 0.45 | – | – | – | bioavailability [8]: 48%; half-life [9]: 5.58 h |
| CC1=C(C(=O)NCCCN2CCC(c3ccc(F)cc3)CC2)[C@@H](c2ccc(F)c(F)c2)NC(=O)N1 | < 6 | 1.7 | 1.8 | 0.5 | 7 | 143 | 40 | – | – | 0.39 | 240 | – | – |
| CC1=C(C(=O)NCCCN2CCC(c3ccc(F)cc3)CC2)[C@@H](c2ccc(F)c(F)c2)NC(=O)N1C | < 6 | 1.2 | 20 | 2.5 | – | – | – | – | – | 0.18 | 590 | 120 | – |
| O=C1NC=C(C(=O)NCCCN2CCC(c3ccc(F)cc3)CC2)[C@@H](c2ccc(F)c(F)c2)N1 | 0 | 1 | 2.2 | 0.5 | 21 | >300 | 24 | 68 | 0.17 | – | – | – | – |
| CC1=C(C(=O)NCCCN2CCC(c3ccccc3C#N)CC2)[C@@H](c2ccc(F)c(F)c2)NC(=O)N1 | 0 | 2.7 | 3 | <0.5 | – | >300 | 158 | 168 | 0.25 | – | – | – | IUP AD50 (Canis familiaris [17]): 6 µg/kg |
| CN1C=C(C(=O)NCCCN2CCC(C#N)(c3ccc(F)cc3)CC2)[C@@H](c2ccc(F)c(F)c2)NC1=O | < 6 | 1.1 | 14 | 4 | – | – | – | – | – | 0.12 | 240 | 53 | – |
| CC1=C(C(=O)NCCCN2CCC(c3ccc(F)cc3C#N)CC2)[C@@H](c2ccc(F)c(F)c2)NC(=O)N1 | 0 | 0.417 | 1.5 | 1.5 | 5 | >300 | 87 | 215 | 0.17 | – | – | – | – |
| CC1=C(C(=O)NCCCN2CCC(c3ccc(F)cc3)CC2)[C@@H](c2ccc(F)c(F)c2)N(C)C(=O)N1C | 17 | 2.3 | 9 | 1 | – | – | – | – | – | 0.18 | 200 | 20 | – |
| CN1C=C(C(=O)NCCCN2CCC(C#N)(c3ccc(F)cc3)CC2)[C@H](c2ccc(F)c(F)c2)NC1=O | 8 | 1.2 | 145 | – | – | – | – | – | – | 2.3 | 710 | 320 | – |
| COc1cc2nc(N3CCN(C(=O)C4CCCO4)CC3)nc(N)c2cc1OC (centres undefined) [TERAZOSIN] | – | – | – | – | – | – | – | – | – | – | – | – | AD50 (Rattus norvegicus [18]): 52 µg/kg; IUP AD50 (Canis familiaris [19]): 97 µg/kg; DBP-20 (Canis familiaris [20]): 74 µg/kg |
| CCOc1ccccc1OCCN[C@H](C)Cc1ccc(OC)c(S(N)(=O)=O)c1 [TAMSULOSIN] | – | – | – | – | – | – | – | – | – | – | – | – | Duration (Rattus norvegicus [21]): 3.5 h; AD50 (Rattus norvegicus [22]): 3 µg/kg |
